# From BindingDB's records for patent US20250188037 (Takeda Pharmaceutical, 2025)
# Experiments:
# [1] = molecular target: Somatostatin receptor type 4 (Homo sapiens, UniProt P31391); assay: SSTR4 I-125 Somatostatin Competition Binding Assay for Selectivity Versus SSTR4
# Protocol: Then 1 μg of SSTR4 membranes in 50 μL assay buffer are added per well. The Plate is incubated for 60 minutes at room temperature. […] The contents of the assay plate are transferred to filters with a TomTech harvester and washed 5 times with 20 mM HEPES, 100 mM NaCl. […] The scintillator sheets are melted to filters using a heat block. The filters are then read in a MicroBeta scintillation counter. Binding Ki curves are generated using Activity Base for Screening Data Management and the results are reported as pIC50.
# [2] = molecular target: Somatostatin receptor type 1 (Homo sapiens, UniProt P30872); assay: SSTR1 I-125 Somatostatin Competition Binding Assay for Selectivity Versus SSTR1
# Somatostatin receptor type 1, sequence (P30872 whole entry): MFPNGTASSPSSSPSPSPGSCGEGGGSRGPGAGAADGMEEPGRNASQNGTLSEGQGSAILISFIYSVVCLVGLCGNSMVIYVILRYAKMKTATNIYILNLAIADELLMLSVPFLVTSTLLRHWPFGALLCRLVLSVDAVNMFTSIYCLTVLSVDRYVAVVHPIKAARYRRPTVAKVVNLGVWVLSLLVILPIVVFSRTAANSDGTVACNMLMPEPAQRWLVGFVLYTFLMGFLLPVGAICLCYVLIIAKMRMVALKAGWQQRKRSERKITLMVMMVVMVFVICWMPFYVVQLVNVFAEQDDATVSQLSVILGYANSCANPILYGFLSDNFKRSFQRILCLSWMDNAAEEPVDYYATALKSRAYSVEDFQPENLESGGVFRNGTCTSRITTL
# Protocol: Then 10 μg of SSTR1 membranes in 50 μL assay buffer are added per well. The plate is incubated for 60 minutes at room temperature. […] The contents of the assay plate are transferred to filters with a TomTech harvester and washed 5 times with 20 mM HEPES, 100 mM NaCl. […] The scintillator sheets are melted to the filters using a heat block. The filters are then read in a MicroBeta scintillation counter. Binding Ki curves are generated using Activity Base for Screening Data Management and the results are reported as pIC50.
# Somatostatin receptor type 4, sequence (P31391 whole entry): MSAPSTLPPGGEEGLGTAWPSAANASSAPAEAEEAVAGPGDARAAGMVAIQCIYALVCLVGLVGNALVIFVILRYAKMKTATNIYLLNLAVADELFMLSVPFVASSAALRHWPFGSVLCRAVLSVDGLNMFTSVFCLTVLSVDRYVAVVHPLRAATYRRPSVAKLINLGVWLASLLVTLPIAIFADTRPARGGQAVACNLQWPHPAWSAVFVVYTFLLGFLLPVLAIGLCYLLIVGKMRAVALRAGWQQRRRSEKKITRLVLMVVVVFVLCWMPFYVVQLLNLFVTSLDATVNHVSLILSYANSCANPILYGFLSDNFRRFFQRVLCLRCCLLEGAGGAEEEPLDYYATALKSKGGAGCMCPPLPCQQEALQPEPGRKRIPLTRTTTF
smiles,measurement,setting,value
"O=C(N[C@H]1CCNC[C@@H]1F)C1(Cc2cccc(F)c2)CC1 [US20250188037, Example 44]",IC50,[1],87.1 nM
same,IC50,[2],> 50100 nM
